According to the NIST ThermoML archive (doi:10.1016/j.jct.2015.03.007):

Assay: xn = mol fraction of the nth substance listed
Details: Fluid (supercritical or subcritical phases), Vibrating wire viscometry, x2 = 0.5174

C [methane] + O=C=O
Details | viscosity [mPa·s]
229 K, 14501 kPa | 0.073
229.3 K, 12980 kPa | 0.0703
229.4 K, 11654 kPa | 0.06874
229.5 K, 10963 kPa | 0.0679
229.5 K, 13698 kPa | 0.0721
229.5 K, 14200 kPa | 0.07231
229.6 K, 10168 kPa | 0.06646
257.8 K, 19252 kPa | 0.05496
257.8 K, 21263 kPa | 0.0575
257.9 K, 12165 kPa | 0.04274
257.9 K, 14190 kPa | 0.047
257.9 K, 18239 kPa | 0.0541
257.9 K, 22280 kPa | 0.05903
257.9 K, 23289 kPa | 0.05979
258 K, 16209 kPa | 0.05083
287.7 K, 7818 kPa | 0.01711
287.7 K, 8134 kPa | 0.01748
287.7 K, 11663 kPa | 0.02384
287.7 K, 12567 kPa | 0.02598
287.7 K, 13512 kPa | 0.02819
287.7 K, 14605 kPa | 0.03051
287.7 K, 15897 kPa | 0.03311
287.7 K, 17472 kPa | 0.03599
287.7 K, 19398 kPa | 0.0392
287.7 K, 21895 kPa | 0.04255
287.7 K, 25061 kPa | 0.04633
287.8 K, 8895 kPa | 0.01845
287.8 K, 9137 kPa | 0.01889
287.8 K, 9866 kPa | 0.02011
287.8 K, 31033 kPa | 0.0527
288.1 K, 1438 kPa | 0.01349
288.1 K, 1553 kPa | 0.0135
288.1 K, 2042 kPa | 0.01369
288.1 K, 2553 kPa | 0.01388
288.1 K, 3073 kPa | 0.01402
288.1 K, 3570 kPa | 0.01425
288.1 K, 5123 kPa | 0.01498
288.1 K, 5405 kPa | 0.01519
288.2 K, 4066 kPa | 0.01442
288.2 K, 4594 kPa | 0.01468
288.2 K, 6609 kPa | 0.01593
288.2 K, 7116 kPa | 0.01636
288.2 K, 9140 kPa | 0.01892
288.2 K, 11159 kPa | 0.02281
288.2 K, 13180 kPa | 0.02721
288.2 K, 15201 kPa | 0.03146
288.2 K, 19138 kPa | 0.03829
288.2 K, 21458 kPa | 0.04192
288.2 K, 23984 kPa | 0.04512
288.2 K, 25172 kPa | 0.04621
288.2 K, 26302 kPa | 0.04748
317.8 K, 2056 kPa | 0.01479
317.9 K, 1389 kPa | 0.01457
317.9 K, 1545 kPa | 0.01462
318 K, 2566 kPa | 0.015
318 K, 3069 kPa | 0.01518
318 K, 4578 kPa | 0.01571
318 K, 5085 kPa | 0.01587
318 K, 6297 kPa | 0.01646
318.1 K, 6520 kPa | 0.01648
318.1 K, 7151 kPa | 0.01689
318.1 K, 7212 kPa | 0.01688
318.1 K, 8226 kPa | 0.01751
318.1 K, 9335 kPa | 0.0182
318.1 K, 10457 kPa | 0.01916
318.1 K, 11460 kPa | 0.02013
318.1 K, 12573 kPa | 0.02123
318.1 K, 13584 kPa | 0.02235
318.1 K, 14713 kPa | 0.02377
318.1 K, 15239 kPa | 0.02432
318.1 K, 15724 kPa | 0.02502
318.1 K, 16254 kPa | 0.02562
318.1 K, 17842 kPa | 0.02789
318.1 K, 20300 kPa | 0.03122
318.1 K, 21518 kPa | 0.03236
318.1 K, 22819 kPa | 0.03405
318.1 K, 24011 kPa | 0.03506
318.1 K, 25249 kPa | 0.03636
318.1 K, 26412 kPa | 0.03781
318.1 K, 27392 kPa | 0.03909
318.1 K, 28884 kPa | 0.04047
318.1 K, 30364 kPa | 0.04187
318.1 K, 31857 kPa | 0.04341
347.7 K, 4516 kPa | 0.01665
347.8 K, 2161 kPa | 0.01599
347.8 K, 2764 kPa | 0.01606
347.8 K, 2964 kPa | 0.01612
347.8 K, 3169 kPa | 0.01615
347.8 K, 3278 kPa | 0.01616
347.8 K, 3485 kPa | 0.01631
347.8 K, 4003 kPa | 0.01648
347.8 K, 5009 kPa | 0.01682
347.8 K, 5509 kPa | 0.01696
347.8 K, 5514 kPa | 0.01701
347.8 K, 6032 kPa | 0.01714
347.8 K, 6512 kPa | 0.01731
347.8 K, 7016 kPa | 0.01746
347.8 K, 7538 kPa | 0.01766
347.8 K, 8039 kPa | 0.01795
347.8 K, 8528 kPa | 0.01812
347.8 K, 9051 kPa | 0.01836
347.8 K, 10090 kPa | 0.0189
347.8 K, 10617 kPa | 0.01914
347.8 K, 11109 kPa | 0.01948
347.8 K, 11596 kPa | 0.01976
347.8 K, 12118 kPa | 0.02008
347.8 K, 12605 kPa | 0.02043
347.8 K, 13204 kPa | 0.02102
347.8 K, 13713 kPa | 0.02132
347.8 K, 14226 kPa | 0.02172
347.8 K, 14732 kPa | 0.02205
347.8 K, 16775 kPa | 0.02364
347.8 K, 18782 kPa | 0.02533
347.8 K, 20792 kPa | 0.02732
347.9 K, 1555 kPa | 0.01586
347.9 K, 1745 kPa | 0.01584
347.9 K, 1956 kPa | 0.01592
347.9 K, 2361 kPa | 0.01592
347.9 K, 2566 kPa | 0.01603
